# Measured values reported in USRE43327E1, “Hydrophobic polyamine analogs and methods for their use” (Aminex Therapeutics, Inc., priority 2001, dated 2012).
# Several values for one entry are separate records, joined by “and”; a condition that tells them apart may be missing. Identical values can stand only once. Like-named read-outs stand apart in the source and are kept apart here.
# How the values were obtained:
# Type in all cases: cell-based
# PC-3 [1] = assay: Growth inhibition assay, PA alone, PC-3; conditions: PA alone (no DFMO), six days, repeat determinations, read-out: Cell Line IC50 PC-3
# Description: (§1) Medias were obtained from Mediatech, Inc. (Herdon, Va.) and serums from Gibco BRL (Gaithersburg, Md.). 50 U/ml penicillin, 50 μg/ml streptomycin and 2 mM L-glutamine (all from Bio Whittaker, Walkersville, Md.) were included in all cultures. […] When cells were cultured with polyamines or ORI compounds, 1 mM aminoguanidine (AG; Sigma) was included to inhibit serum amine oxidase activity.
# A375 [2] = assay: Growth inhibition assay, PA alone, A375; conditions: PA alone (no DFMO), six days, repeat determinations, read-out: Cell Line IC50 A375
# Description: as §1
# PC-3 [3] = assay: Growth inhibition assay (MTS/PMS) with DFMO, PC-3; conditions: in the presence of DFMO (1-5 mM), 1 mM AG, 0.5 μM SPD, six days; repeat determinations; read-out: Cell Line EC50 PC-3
# Description: as §1
# A375 [4] = assay: Growth inhibition assay (MTS/PMS) with DFMO, A375; conditions: in the presence of DFMO (1-5 mM), 1 mM AG, 0.5 μM SPD, six days; repeat determinations; read-out: Cell Line EC50 A375
# Description: as §1
# SK-OV-3 [5] = assay: Growth inhibition assay, PA alone, SK-OV-3; conditions: PA alone (no DFMO), six days, repeat determinations, read-out: Cell Line IC50 SK-OV-3
# Description: as §1
# MDA-MB-231 [6] = assay: Growth inhibition assay, PA alone, MDA-MB-231; conditions: PA alone (no DFMO), six days, repeat determinations, read-out: Cell Line IC50 MDA-MB-231
# Description: as §1
# [7] = test system: 4 cell lines (A375, MDA-MB-231, PC-3, SK-OV-3); assay: Growth inhibition with DFMO, average over 4 cell lines; conditions: with DFMO
# MDA-MB-231 [8] = assay: Growth inhibition assay (MTS/PMS) with DFMO, MDA-MB-231; conditions: in the presence of DFMO (1-5 mM), 1 mM AG, 0.5 μM SPD, six days; repeat determinations; read-out: Cell Line EC50 MDA-MB-231
# Description: as §1
# SK-OV-3 [9] = assay: Growth inhibition assay (MTS/PMS) with DFMO, SK-OV-3; conditions: in the presence of DFMO (1-5 mM), 1 mM AG, 0.5 μM SPD, six days; repeat determinations; read-out: Cell Line EC50 SK-OV-3
# Description: as §1
# [10] = Homo sapiens, MDA-MB-231, 144 h
# [11] = Table 3, average over cell lines, read-out: AVG. EC50
# [12] = Table 2, average EC50 for 4 cell lines, read-out: Ave EC50 value
SMILES,IC50 (PC-3 [1]),IC50 (A375 [2]),EC50 (PC-3 [3]),EC50 (A375 [4]),"IC50 (PC-3 [1]; Homo sapiens, PC-3, 144 h)","IC50 (SK-OV-3 [5]; Homo sapiens, SK-OV-3, 144 h)",IC50 (MDA-MB-231 [6]; [10]),"IC50 (A375 [2]; Homo sapiens, A-375, 144 h)","EC50 [7, 11]",IC50 (SK-OV-3 [5]),EC50 (MDA-MB-231 [8]),IC50 (MDA-MB-231 [6]),EC50 (SK-OV-3 [9]),"EC50 [7, 12]"
NCCCNCCCCNCCCNC(=O)[C@@H](N)CCCCNC(=O)c1ccccc1 [IA24],> 30 µM,> 30 µM,> 30 µM,1.56 µM,,,,,,,,,,
CC(C)C(=O)NCCCC[C@@H](N)C(=O)NCCCNCCCCNCCCN [IB33],,,,,> 100 µM,> 100 µM,> 100 µM,> 100 µM,8.58 µM,,,,,
CC(C)(C)C(=O)NCCCC[C@@H](N)C(=O)NCCCNCCCCNCCCN [IB34],,,,,> 100 µM,> 100 µM,> 100 µM,> 100 µM,8.29 µM,,,,,
CC(C)(C)CC(=O)NCCCC[C@@H](N)C(=O)NCCCNCCCCNCCCN [IB36],,,,,> 100 µM,> 100 µM,> 100 µM,> 100 µM,26.9 µM,,,,,
NCCCNCCCCNCCCNC(=O)[C@H](N)CCCCNC(=O)CC1CC2CCC1C2 (some centres unmarked) [IB37],,,,,> 100 µM,18.3 µM,> 100 µM,19.8 µM,35.1 µM,,,,,
CC(C)[C@@H]1CC[C@@H](C)C[C@H]1OCC(=O)NCCCC[C@@H](N)C(=O)NCCCNCCCCNCCCN [IB38],,,,,28 µM,60.1 µM,63.9 µM,21.3 µM,13.4 µM,,,,,
NCCCNCCCCNCCCNC(=O)[C@H](N)CCCCNC(=O)C(F)(F)C(F)(F)C(F)(F)F [IB39],> 100 µM,,> 100 µM,,,,,,,> 100 µM,52.5 µM,4.26 µM,> 100 µM,
CC(C)(C)OC(=O)NCCCC[C@@H](N)C(=O)NCCCNCCCCNCCCN [IB41],,,6.73 µM,,,,,,,,31.9 µM,,,
CCCCCCCCCCCCCCCC(=O)NCCCC[C@H](NC(=O)CCCCCCCCCCCCCCC)C(=O)NCCCNCCCCNCCCN [IE4],21.5 µM,,0.2 µM,,,,,,,7.25 µM,0.267 µM,17.9 µM,0.132 µM,
CCS(=O)(=O)NCCCC[C@H](N)C(=O)NCCCNCCCCNCCCN [IIA2],> 30 µM,> 30 µM,> 30 µM,> 30 µM,,,,,,> 30 µM,,,> 30 µM,
NCCCNCCCCNCCCNC(=O)[C@@H](N)CCCCNS(=O)(=O)c1ccc(CNC(=O)c2ccc(Cl)cc2)s1 [IIA21],,,0.46 µM,,,,,,,,1.4 µM,,,
CCS(=O)(=O)NCCCC[C@@H](N)C(=O)NCCCNCCCCNCCCN [IIB2],> 30 µM,> 30 µM,3.64 µM,7.25 µM,,,,,,> 30 µM,,,> 30 µM,
Cc1cc(C)c(S(=O)(=O)NCCCC[C@@H](N)C(=O)NCCCNCCCCNCCCN)c(C)c1 [IIB17],> 30 µM,> 30 µM,0.919 µM,1.52 µM,,,,,,> 30 µM,,,26.2 µM,
CCCCCCCCCCCCCCCCS(=O)(=O)NCCCC[C@H](NS(=O)(=O)CCCCCCCCCCCCCCCC)C(=O)NCCCNCCCCNCCCN [IIE10],14.3 µM,,0.152 µM,,,,,,,20.1 µM,0.392 µM,24.5 µM,0.272 µM,
CCCCC/C=C\C/C=C\CCCCCCCC(=O)NCCCC[C@H](N)C(=O)NCCCNCCCCNCCCN [IIIA5],,> 30 µM,,0.084 µM,,,,,,,0.207 µM,> 30 µM,,
CCCC/C=C\CCCCCCCCCCNCCCC[C@H](N)C(=O)NCCCNCCCCNCCCN [IVA18],> 3 µM,,0.075 µM,0.05 µM and 0.061 µM,,,,,0.079 µM,> 3 µM,,,0.14 µM,
NCCCNCCCCNCCCNC(=O)[C@@H](N)CCCCNCC1CCCCC1 [IVA27],> 100 µM,> 100 µM,,,,,,,4.69 µM,> 100 µM,,> 100 µM,,
CCCCNCCCC[C@@H](N)C(=O)NCCCNCCCCNCCCN [IVB3],,,,,> 100 µM,> 100 µM,> 100 µM,> 100 µM,2.2 µM,,,,,
CCCCCCNCCCC[C@@H](N)C(=O)NCCCNCCCCNCCCN [IVB5],,,,,> 100 µM,> 100 µM,> 100 µM,> 100 µM,0.868 µM,,,,,
CCCCCCCNCCCC[C@@H](N)C(=O)NCCCNCCCCNCCCN [IVB6],,,,,> 100 µM,> 100 µM,> 100 µM,> 100 µM,0.365 µM,,,,,
CC(C)CCNCCCC[C@@H](N)C(=O)NCCCNCCCCNCCCN [IVB21],,71 µM,,,> 100 µM,> 100 µM,> 100 µM,> 100 µM,1.52 µM,,,,,
CC(C)(C)CCNCCCC[C@@H](N)C(=O)NCCCNCCCCNCCCN [IVB22],,,,,> 100 µM,> 100 µM,> 100 µM,> 100 µM,1.33 µM,,,,,
CC(C)CNCCCC[C@@H](N)C(=O)NCCCNCCCCNCCCN [IVB23],,,,,> 100 µM,> 100 µM,> 100 µM,> 100 µM,1.79 µM,,,,,
CC(C)=CCC[C@H](C)CCNCCCC[C@@H](N)C(=O)NCCCNCCCCNCCCN [IVB28],,,,,17.8 µM,19.8 µM,18.9 µM,5.6 µM,10.7 µM,,,,,
NCCCNCCCCNCCCNC(=O)[C@H](CCCCNCc1ccccc1)NCc1ccccc1 [IVE30],,,1.7 µM,,,,,,,,4.2 µM,,,
CC(C)(C)CNCCCC[C@H](N)C(=O)NCCCNCCCCNCCCN [VA22],,83.5 µM,,,> 100 µM,> 100 µM,> 100 µM,> 100 µM,6.98 µM,,,,,2.42 µM
CCCC(CCC)NCCCC[C@H](N)C(=O)NCCCNCCCCNCCCN [VA26],,,,,> 100 µM,> 100 µM,> 100 µM,> 100 µM,3.91 µM,,,,,
NCCCNCCCCNCCCNC(=O)[C@@H](N)CCCCNCC12CC3CC(CC(C3)C1)C2 [VA27],,,,,> 100 µM,> 100 µM,> 100 µM,> 100 µM,6.45 µM,,,,,26.8 µM
CC(C)[C@@H]1CC[C@@H](C)CC1NCCCC[C@@H](N)C(=O)NCCCNCCCCNCCCN (some centres unmarked) [VB28],,64.5 µM,,,> 100 µM,> 100 µM,> 100 µM,> 100 µM,0.905 µM,,,,,
